According to patent US9713613B2, “Methods and compositions for the treatment of cancer and related hyperproliferative disorders” (priority 2007, dated 2017):

Legend:
mice (129Sv background) = assay: mice, two-week treatment, normal diet; format: in vivo, mouse; details: two weeks
Experimental: Food intake was similar between both groups (3.8 and 3.5 g/mouse/day for treated and control mice, respectively).
In the second protocol, two groups of male mice (n=5) were treated daily for two weeks with either 30 mg/kg fatostatin A or 10% DMSO in PBS. Food intake and body weight were measured daily. At the end of the experiments, the mice were briefly fasted for 4-5 hrs, and their blood was withdrawn for determination of serum constituents. The mice were then sacrificed, and their livers were quickly removed and ground to powder in liquid nitrogen. The powdered tissues were suspended in 10 ml of PBS containing 0.1 mM PMSF, 5 mM benzamidine, and 5 mg/mL protease inhibitor cocktail (Roche), homogenized using Polytron (3×30 Sec, at a high speed), and sonicated briefly to degrade DNA. The extracts were clarified by centrifugation at 16,000×g for 20 min. The samples were then subjected to western blot analysis using commercially available antibodies against FAS and SREBP-1. FAS and ACC activities were determined as described earlier (Mao et al., 2006).

PLAP-BP2 = PLAP-BP2 cleavage assay in CHO-K1 cells; format: cell-based, Chinese hamster; details: 20 μM
From the text: (§1) To determine if fatostatin affects the ER-Golgi translocation and proteolytic processing of SREBPs, a reporter assay developed by Sakai et al. (1998) was used. PLAP-BP2 in transfected CHO-K1 cells remains membrane-bound unless it is cleaved by S1P in the Golgi and secreted into the culture medium. In the assay, a secreted alkaline phosphatase, fused with an SREBP-2 fragment lacking the NH2-terminal DNA-binding domain (PLAP-BP2513-1141), permits monitoring of translocation and processing through changes in the fluorescence of a fluorogenic phosphatase substrate (FIG. 18C). When cells were co-transfected with plasmids encoding PLAP-BP2513-1141 and SCAP, PLAP phosphatase was secreted, generating fluorescence signals. […] The fatostatin-mediated inhibition of SREBP activation was confirmed by western blot analysis of SREBPs. […] Similar results were obtained for SREBP-1 (FIG. 22).
PLAP-BP2 Cleavage. On day 0, CHO-K1 cells were plated out onto a 96-well plate in medium A. On day 2, the cells were transiently co-transfected with pCMV-PLAP-BP2(513-1141), pCMV-SCAP and pAc-β-gal, using Lipofectamine reagent (Invitrogen). […]

SREBP-2 = assay: Western blot analysis of SREBP processing in CHO-K1 cells; format: cell-based, Chinese hamster
From the text: as §1
Western blot analysis of SREBP processing. […] The protein concentration of each total cell extract was measured (BCA kit; Pierce), after which a 22-33 μg aliquot of cell extract was mixed with 0.25 volume of buffer (250 mM Tris-HCl, pH 6.8, 10% SDS, 25% glycerol, 0.2% (w/v) bromophenol blue, and 5% (v/v) 2-mercaptoethanol), heated for 7 min at 95° C. […]

MOLT-4 cells = assay: MOLT-4 cell growth, MTT assay; format: cell-based, human; details: 48 hours
Experimental: 10,000 MOLT-4 cells (FIGS. 35A-35C) and 20,000 RPM18226 cells (FIGS. 35D-35F) were seeded onto 96 well plate in RPMI 1640 medium containing 5% FBS or fat-free charcoal treated serum (FF-FBS) for 24 hours at 37 C. MOLT-4 and RPM18226 cells were treated for additional 48 hours with different concentrations of compound 19 (None control without DMSO, Vehicle with DMSO, 1, 2, 5, 10 and 20 μM in DMSO; RPM18226 cells also were treated with 3 μM in DMSO). At the end of 48 hours cells were subjected to MTT assay to determine viability. Values are depicted as means±SD; *P<0.05.
20,000 MOLT-4 cells (FIGS. 36A-36C) and 20,000 RPM18226 cells (FIGS. 36D-36F) cells were seeded onto 96 well plates in RPMI 1640 Medium containing 5% Fetal bovine serum (FBS) or 5% fat free charcoal treated serum (FF-FBS) for 24 hours at 37 C. Cells then were treated for additional 48 hours with different concentrations of compound 17 (None control without DMSO, Vehicle with DMSO, 1, 2, 3, 5, 10 and 20 μM in DMSO). At the end of the 48 hours treatment cells were subjected to MTT assay to determine viability. Values are depicted as means±SD (n=3); **P<0.001; ***P<0.0001.
MOLT-4 cells were grown at two different conditions under 5% fetal bovine serum (FBS) and under 5% FBS fat free serum (charcoal treated serum). 10,000 Cells were seeded a 96 well plate for 24 hours before starting the treatment with different concentrations of compound 19. Compound 19 dissolved in DMSO was added to cells for 48 hours before determining cell growth using MTT assay. […] Compound 19 inhibited cell growth about 75-80% at 10 and 20 μM under both growth conditions.
MOLT-4 cells were grown at two different conditions under 5% fetal bovine serum (FBS) and under 5% FBS fat free serum (charcoal treated serum). 20,000 cells were seeded into a 96 well plate for 24 hours before starting the treatment with different concentrations of compound 17. Compound 17 dissolved in DMSO was added to cells for 48 hours before determining cell growth using MTT assay. […] Compound 17 inhibited cell growth about 85-100% at 5, 10 and 20 μM under both growth conditions. Under both 5% FBS and 5% FBS fat free sera there was a strong trend of inhibition starting at 1 μM (FIGS. 36B-36C).

Compound: CCCc1cc(-c2nc(-c3ccc(C)cc3)cs2)ccn1 [Compound 1, 2-propyl-4-(4-p-tolylthiazol-2-yl)pyridine]
- loss of body weight (mice (129Sv background); 30 mg/kg daily, normal diet, control no change): 10%
- decrease of FAS activity and its protein level in liver (mice (129Sv background); 30 mg/kg daily): about 30%
- food intake (mice (129Sv background); control 3.5): 3.8 g/mouse/day
- secretion of PLAP phosphatase (PLAP-BP2 cleavage) (PLAP-BP2): decreased
- amounts of mature and precursor forms of SREBP-2 (western blot) (SREBP-2): decreased the amount of the 68 KDa mature form of SREBP-2

Compound: CCCc1cc(-c2nc(-c3ccc(NS(C)(=O)=O)cc3)cs2)ccn1 [Compound 19, N-(4-(2-(2-propylpyridin-4-yl)thiazol-4-yl)phenyl)methanesulfonamide]
- growth inhibition (MOLT-4 cells; 2 and 5 μM, FBS fat free serum): 30-50%
- inhibition of cell growth (MOLT-4 cells; 10 and 20 μM, 5% FBS and 5% FBS fat free): 75-80%
